From PMC4022547 (Molecular Brain, 2014)

Experiments:
[1] = target: hα6(S233C) + codon optimized hβ2 + hβ3^V9’S nAChR (Homo sapiens, UniProt P17787+Q15825, S233C); conditions: 100 μM nicotine; oocytes clamped at −70 mV
Description: (§1) We planned to introduce identical amounts of cRNA, presumably producing equal amounts of each subunit protein, into oocytes largely due to lack of information about the levels of mRNA for each subunits that compose α6*-nAChRs in neurons or other cells. Concentrations of cRNAs for each nAChR α and β subunits (WT, mutant or variant) were adjusted to 500 ng μL^−1. We provisionally assumed that hα6 or its variants in association with hβ2 or hβ4 subunits would form complexes having 2:3 and/or 3:2 ratios of the indicated subunits and that oocytes also injected with WT or mutant form of β3 subunits (i.e., β3^V9’S) would express nAChR with 2:2:1 ratios of α:β:(β3 or β3^V9’S) subunits. For expression of binary nAChRs (i.e., two subunit containing nAChRs; α + β but not β3) cRNA mixtures were prepared by mixing 1 μL of cRNA for each subunit and an additional μL of RNAse free water (i.e., total volume 3 μL). Similarly for expression of ternary nAChRs [i.e., three subunit containing nAChRs; (α + β) + (β3 or β3^V9’S)] cRNA mixtures were prepared by mixing 1 μL of cRNA for each subunit. Several preparations of each mixture were prepared and stored at −80°C until further use. Injection of 138 nL of cRNA, out of 3 μL cRNA mixtures, into each oocyte would deliver ~23 ng of cRNA for each subunit whether binary or ternary nAChRs are expressed.
(§2) Two to 5 days after injection, oocytes were placed in a small-volume chamber and continuously perfused with OR2. The chamber was grounded through an agarose bridge. The oocytes were voltage-clamped at −70 mV (unless otherwise noted) to measure agonist or antagonist induced currents using Axoclamp 900A and pClamp 10.2 software (Molecular Devices, Sunnyvale, CA). The current signal was low-pass filtered at 10 Hz with the built-in low-pass Bessel filter in the Axoclamp 900A and digitized at 20 Hz with Axon Digidata1440A and pClamp10. […] Drugs (agonists and antagonists) were prepared daily in OR2. Drug was applied using a Valvelink 8.2 perfusion system (Automate scientific, Berkeley, CA). […] Then for the purpose of comparison electrophysiological recordings were performed in a given day in a given batch of oocytes following the same order of injections. […] All hβ4*-nAChR recordings were done in similar conditions to facilitate comparisons between hα6hβ4- and hα6hβ4hβ3-nAChRs. All electrophysiological measurements were conducted or checked in at least two batches of oocytes.
(§3) Raw data was collected and processed in part using pClamp 10.2 (Molecular Devices, Sunnyvale, CA), Origin 7.5 (OriginLab Corporation, Northampton, MA) and a spreadsheet (Excel; Microsoft, Bellevue, WA). Peak current amplitudes (Imax) are reported as mean ± SEM (for results from at least three oocytes, i.e., n = 3).

[2] = target: hα6(S43P) + hβ4 + hβ3 nAChR (Homo sapiens, UniProt P30926+Q15825, S43P); conditions: 100 μM nicotine; oocytes clamped at −70 mV
Description: as §1, §2, §3

[3] = target: hα6(S43P) + codon optimized hβ2 + hβ3^V9’S nAChR (Homo sapiens, UniProt P17787+Q15825, S43P); conditions: 100 μM nicotine; oocytes clamped at −70 mV
Description: as §1, §2, §3

[4] = target: hα6(A112V) + WT hβ2 + hβ3^V9’S nAChR (Homo sapiens, UniProt P17787+Q15825, A112V); conditions: 100 μM nicotine; 3 days after cRNA injection
Description: as §1, §2, §3

[5] = target: hα6(N203T) + WT hβ2 + hβ3^V9’S nAChR (Homo sapiens, UniProt P17787+Q15825, N203T); conditions: 100 μM nicotine
hα6(N203T) + WT hβ2 + hβ3^V9’S nAChR, sequence (Q15825 26-494 N203T): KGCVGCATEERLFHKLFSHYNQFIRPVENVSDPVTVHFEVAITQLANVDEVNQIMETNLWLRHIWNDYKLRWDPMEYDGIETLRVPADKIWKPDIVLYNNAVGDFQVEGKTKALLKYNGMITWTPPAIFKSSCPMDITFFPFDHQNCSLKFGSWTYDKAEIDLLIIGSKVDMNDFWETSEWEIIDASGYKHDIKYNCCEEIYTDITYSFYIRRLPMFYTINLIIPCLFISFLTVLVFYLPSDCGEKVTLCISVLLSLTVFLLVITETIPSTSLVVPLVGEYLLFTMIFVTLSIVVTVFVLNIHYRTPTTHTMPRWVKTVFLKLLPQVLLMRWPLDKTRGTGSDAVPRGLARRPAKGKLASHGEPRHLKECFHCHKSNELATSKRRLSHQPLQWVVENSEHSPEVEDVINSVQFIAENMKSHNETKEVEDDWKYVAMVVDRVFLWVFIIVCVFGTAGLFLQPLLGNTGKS
hα6(N203T) + WT hβ2 + hβ3^V9’S nAChR, sequence (P17787 26-502): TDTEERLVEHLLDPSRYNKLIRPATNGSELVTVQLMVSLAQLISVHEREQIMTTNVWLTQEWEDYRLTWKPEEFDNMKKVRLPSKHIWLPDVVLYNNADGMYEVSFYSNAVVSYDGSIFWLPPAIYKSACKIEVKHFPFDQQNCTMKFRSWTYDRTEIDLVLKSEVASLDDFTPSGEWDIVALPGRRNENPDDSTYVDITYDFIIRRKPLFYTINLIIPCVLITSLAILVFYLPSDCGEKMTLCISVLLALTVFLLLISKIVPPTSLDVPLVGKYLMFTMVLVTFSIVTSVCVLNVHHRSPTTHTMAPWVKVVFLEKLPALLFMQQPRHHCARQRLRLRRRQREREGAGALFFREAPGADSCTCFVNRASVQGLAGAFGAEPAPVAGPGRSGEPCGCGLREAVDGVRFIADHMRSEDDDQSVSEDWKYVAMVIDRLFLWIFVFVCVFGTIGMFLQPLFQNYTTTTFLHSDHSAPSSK
hα6(N203T) + WT hβ2 + hβ3^V9’S nAChR, sequence (Q05901 25-458 V273S partner limits assumed): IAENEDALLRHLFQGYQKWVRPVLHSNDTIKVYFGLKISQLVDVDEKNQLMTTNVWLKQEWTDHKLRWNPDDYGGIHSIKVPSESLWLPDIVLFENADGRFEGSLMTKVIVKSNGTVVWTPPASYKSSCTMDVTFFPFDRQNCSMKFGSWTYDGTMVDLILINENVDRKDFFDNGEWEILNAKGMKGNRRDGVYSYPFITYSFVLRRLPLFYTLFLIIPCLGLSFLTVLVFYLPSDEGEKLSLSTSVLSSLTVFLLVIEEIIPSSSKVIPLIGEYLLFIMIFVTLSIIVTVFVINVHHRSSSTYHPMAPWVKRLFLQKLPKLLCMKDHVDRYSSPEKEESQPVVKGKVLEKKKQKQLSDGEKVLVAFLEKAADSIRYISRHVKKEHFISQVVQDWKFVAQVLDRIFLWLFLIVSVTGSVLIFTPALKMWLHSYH
Description: as §1, §2, §3

[6] = target: hα6(D57N) + WT hβ2 + hβ3^V9’S nAChR (Homo sapiens, UniProt P17787+Q15825, D57N); conditions: nicotine
Description: as §1, §2, §3

hα6(E101K) + hβ4 nAChR = hα6(E101K) + hβ4 nAChR (Homo sapiens, UniProt P30926+Q15825, E101K); conditions: 100 μM nicotine; oocytes clamped at −70 mV
Description: as §1, §2, §3

[7] = target: hα6(A112V) + codon optimized hβ2 + hβ3^V9’S nAChR (Homo sapiens, UniProt P17787+Q15825, A112V); conditions: 100 μM nicotine; oocytes clamped at −70 mV
Description: as §1, §2, §3

[8] = target: hα6(N46K) + WT hβ2 + hβ3^V9’S nAChR (Homo sapiens, UniProt P17787+Q15825, N46K); conditions: nicotine
Description: as §1, §2, §3

[9] = target: hα6(A184D) + codon optimized hβ2 + hβ3^V9’S nAChR (Homo sapiens, UniProt P17787+Q15825, A184D); conditions: 100 μM nicotine; oocytes clamped at −70 mV
Description: as §1, §2, §3

[10] = target: hα6(I226T) + WT hβ2 + hβ3^V9’S nAChR (Homo sapiens, UniProt P17787+Q15825, I226T); conditions: 100 μM nicotine
hα6(I226T) + WT hβ2 + hβ3^V9’S nAChR, sequence (Q15825 26-494 I226T): as the sequence (Q15825 26-494 N203T) above, with T178N, I201T counted along it
hα6(I226T) + WT hβ2 + hβ3^V9’S nAChR, sequence (P17787 26-502): as the sequence (P17787 26-502) above
hα6(I226T) + WT hβ2 + hβ3^V9’S nAChR, sequence (Q05901 25-458 V273S partner limits assumed): as the sequence (Q05901 25-458 V273S partner limits assumed) above
Description: as §1, §2, §3

[11] = target: hα6(I226T) + hβ4 + hβ3 nAChR (Homo sapiens, UniProt P30926+Q15825, I226T); conditions: 100 μM nicotine; oocytes clamped at −70 mV
Description: as §1, §2, §3

[12] = target: hα6(D57N) + hβ4 + hβ3 nAChR (Homo sapiens, UniProt P30926+Q15825, D57N); conditions: nicotine
Description: as §1, §2, §3

hα6(A112V) + hβ4 nAChR = hα6(A112V) + hβ4 nAChR (Homo sapiens, UniProt P30926+Q15825, A112V); conditions: 100 μM nicotine; oocytes clamped at −70 mV
Description: as §1, §2, §3

[13] = target: hα6(A112V) + hβ4 + hβ3 nAChR (Homo sapiens, UniProt P30926+Q15825, A112V); conditions: 100 μM nicotine; oocytes clamped at −70 mV
Description: as §1, §2, §3

[14] = target: hα6 + codon optimized hβ2 + hβ3^V9’S nAChR (Homo sapiens, UniProt P17787+Q15825); conditions: 100 μM nicotine
hα6 + codon optimized hβ2 + hβ3^V9’S nAChR, sequence (Q15825 26-494): as the sequence (Q15825 26-494 N203T) above, with T178N counted along it
hα6 + codon optimized hβ2 + hβ3^V9’S nAChR, sequence (P17787 26-502): as the sequence (P17787 26-502) above
hα6 + codon optimized hβ2 + hβ3^V9’S nAChR, sequence (Q05901 22-458 V273S partner): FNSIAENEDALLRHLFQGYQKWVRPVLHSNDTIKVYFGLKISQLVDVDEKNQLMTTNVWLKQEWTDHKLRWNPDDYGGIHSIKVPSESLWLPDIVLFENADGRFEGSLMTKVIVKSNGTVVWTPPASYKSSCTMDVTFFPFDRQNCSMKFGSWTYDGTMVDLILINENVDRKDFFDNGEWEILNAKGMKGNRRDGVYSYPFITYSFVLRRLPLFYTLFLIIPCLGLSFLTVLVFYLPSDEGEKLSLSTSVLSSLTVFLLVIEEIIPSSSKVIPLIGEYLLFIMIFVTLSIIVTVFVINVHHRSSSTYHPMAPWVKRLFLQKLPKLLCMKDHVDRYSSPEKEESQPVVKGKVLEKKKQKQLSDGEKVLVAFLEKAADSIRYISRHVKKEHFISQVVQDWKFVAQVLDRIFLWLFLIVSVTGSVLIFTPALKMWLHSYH
Description: as §1, §2, §3

[15] = target: hα6(N171K) + WT hβ2 + hβ3^V9’S nAChR (Homo sapiens, UniProt P17787+Q15825, N171K); conditions: nicotine
Description: as §1, §2, §3

CN1CCC[C@H]1c1cccnc1 [nicotine, L-nicotine]
peak current (Imax, mean ± SE) [1]: 1582 ± 221 nA
Mean (±SE) peak current response [2]: 208 ± 22 nA
peak current (Imax, mean ± SE) [3]: 47 ± 9 nA
peak current response [4]: 15-30 nA
peak current response ([5]; 3 days after cRNA injection): 15-30 nA
Mean (±SEM) current response ([5]; 5 days after injection): 53 ± 12 nA
current response [6]: did not yield current responses
peak current (Imax, mean ± SE) (hα6(E101K) + hβ4 nAChR): 73 ± 10 nA
peak current (Imax, mean ± SE) [7]: 293 ± 24 nA
current response [8]: did not yield current responses
peak current (Imax, mean ± SE) [9]: 616 ± 95 nA
peak current response ([10]; 3 days after cRNA injection): 15-30 nA
Mean (±SEM) current response ([10]; 5 days after injection): 123 ± 40 nA
Mean (±SE) peak current response [11]: 403 ± 79 nA
current response [12]: did not elicit current responses
peak current (Imax, mean ± SE) (hα6(A112V) + hβ4 nAChR): 110 ± 22 nA
Mean (±SE) peak current response [13]: 482 ± 59 nA
current response relative to receptor with WT hβ2 ([14]; codon optimized vs. WT hβ2): ~ 31 fold
peak current (Imax, mean ± SE) ([14]; oocytes clamped at −70 mV): 469 ± 75 nA
current response [15]: did not yield current responses
